Measured values taken from patent publication US20020049299A1, “Synthetic soil-extract materials and medicaments for hemorrhagic fever viruses based thereon” (priority 1997, published 2002).
In brackets after ≈: the same amount, converted by molar mass.

Columns and labels:
Type in all cases: cell-based
[1] = system: Punta Toro A hemorrhagic fever virus type Adames; assay: Punta Toro A virus cytoprotection, neutral red dye uptake; conditions: Punta Toro A virus in LLC-MK2 cells
Description: (§1) The second cytoprotection assay protocol, employed to validate the CPE results, was as follows: in the neutral red dye uptake version of the antiviral test protocol described immediately above, the same 96-well microplates were utilized after the CPE had been read. Neutral red dye was then added to the medium: cells not damaged by virus take up a greater amount of dye, which can be read on a computerized micro plate autoreader (the method is described in detail by McManus: Appl. Environ. Microbiol. 1976, 31, 35-38).
(§2) Punta Toro A hemorrhagic fever virus type Adames was obtained from the Center for Disease Control (CDC). The test cell line consisted of adult Rhesus monkey kidney cells (LLC-MK2).
The two protocols used to determine the cytoprotection properties of the humate materials were as described in Example 20.

[2] = system: Pichinde hemorrhagic fever virus 4763
[3] = system: Pichinde hemorrhagic fever virus 4763; assay: microbe, parasite or virus in culture; conditions: BSC-1, read-out: CPE EC50
[4] = system: Punta Toro A hemorrhagic fever virus type Adames; assay: Punta Toro A virus time-of-addition cytoprotection, CPE method
[5] = system: Punta Toro A hemorrhagic fever virus type Adames; assay: Punta Toro A virus time-of-addition cytoprotection, NR method
Description: as §1, §2
The two protocols used to determine the cytoprotection properties of the humate materials were as described in Example 20, except that drugs were added at specific times to the test wells containing virus.

[6] = system: Punta Toro A hemorrhagic fever virus type Adames; assay: Punta Toro A virus cytoprotection, inhibition of CPE; conditions: LLC-MK2, read-out: CPE EC50

## NC(=O)c1ncn([C@@H]2O[C@H](CO)[C@@H](O)[C@H]2O)n1 [Ribavirin]
[1]
  NR EC99: 5 micrograms per milliliter
[2]
  NR EC99: <1 micrograms per milliliter
[3]
  EC50: 0.3 µg/mL (≈ 1.23 µM)
[4]; 0 h, read-out: EC50, CPE method, time of addition 0 hours
  EC50: 4 µg/mL (≈ 16.4 µM)
[4]; 1 h, read-out: EC50, CPE method, time of addition 1 hours
  EC50: 4 µg/mL (≈ 16.4 µM)
[4]; 1 h, read-out: EC50, CPE method, time of addition −1 hours
  EC50: 10 µg/mL (≈ 40.9 µM)
[4]; 2 h, read-out: EC50, CPE method, time of addition 2 hours
  EC50: 8 µg/mL (≈ 32.8 µM)
[4]; 4 h, read-out: EC50, CPE method, time of addition 4 hours
  EC50: 4 µg/mL (≈ 16.4 µM)
[4]; 6 h, read-out: EC50, CPE method, time of addition 6 hours
  EC50: 10 µg/mL (≈ 40.9 µM)
[4]; 8 h, read-out: EC50, CPE method, time of addition 8 hours
  EC50: 8 µg/mL (≈ 32.8 µM)
[4]; 12 h, read-out: EC50, CPE method, time of addition 12 hours
  EC50: 8 µg/mL (≈ 32.8 µM)
[4]; 24 h, read-out: EC50, CPE method, time of addition 24 hours
  EC50: 2 µg/mL (≈ 8.19 µM)
[5]; 0 h, read-out: EC50, NR method, time of addition 0 hours
  EC50: 3 µg/mL (≈ 12.3 µM)
[5]; 1 h, read-out: EC50, NR method, time of addition 1 hours
  EC50: 5 µg/mL (≈ 20.5 µM)
[5]; 1 h, read-out: EC50, NR method, time of addition −1 hours
  EC50: 6 µg/mL (≈ 24.6 µM)
[5]; 2 h, read-out: EC50, NR method, time of addition 2 hours
  EC50: 5 µg/mL (≈ 20.5 µM)
[5]; 4 h, read-out: EC50, NR method, time of addition 4 hours
  EC50: 9 µg/mL (≈ 36.9 µM)
[5]; 6 h, read-out: EC50, NR method, time of addition 6 hours
  EC50: 8 µg/mL (≈ 32.8 µM)
[5]; 8 h, read-out: EC50, NR method, time of addition 8 hours
  EC50: 10 µg/mL (≈ 40.9 µM)
[5]; 12 h, read-out: EC50, NR method, time of addition 12 hours
  EC50: 12 µg/mL (≈ 49.1 µM)
[5]; 24 h, read-out: EC50, NR method, time of addition 24 hours
  EC50: 35 µg/mL (≈ 143 µM)
[6]
  EC50: 5 µg/mL (≈ 20.5 µM)
